The record followed here is BindingDB's records for patent US20240190872 (University of Illinois, 2024).

As usually defined, the Ki is the equilibrium dissociation constant of an inhibitor or competing ligand from its target.

For the test, the target named is T1, Enoyl-[acyl-carrier-protein] reductase [NADH] (UniProt A0A6F8TJQ1).
T1 sequence (A0A6F8TJQ1 whole entry): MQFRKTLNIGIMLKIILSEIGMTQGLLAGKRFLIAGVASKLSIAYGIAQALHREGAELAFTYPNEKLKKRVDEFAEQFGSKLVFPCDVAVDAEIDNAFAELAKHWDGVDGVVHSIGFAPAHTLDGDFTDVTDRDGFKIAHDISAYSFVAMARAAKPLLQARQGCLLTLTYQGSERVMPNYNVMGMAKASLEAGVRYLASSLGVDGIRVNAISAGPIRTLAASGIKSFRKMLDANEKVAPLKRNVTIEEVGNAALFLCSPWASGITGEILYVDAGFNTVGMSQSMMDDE
Kind of test: standard FabI enzyme assay. Here is the method:
To probe the effects of varying ring systems and amine placement on FabI target engagement, the apparent inhibition constants (Kiapp) for select compounds were determined using purified FabI. The goal of these studies was two-fold, to comparatively assess fabimycin, Debio-1452-NH3, and Debio-1452, and to also assess differential activity against the E. coli and A. baumannii versions of FabI. FabI from E. coli and A. baumannii were recombinantly expressed and purified, and the ability for each compound to inhibit the activity of these enzymes was evaluated using a standard FabI enzyme assay.

Compound `Cc1c(CN(C)C(=O)/C=C/c2cnc3c(c2)C[C@@H](N)C(=O)N3)oc2ccccc12` [US20240190872, Compound (+-)-Debio-1452-NH3] had an inhibition constant Ki of 114 nM.
